Holding throughout (assay type): functional
Assay [1] has as its system Mycobacterium tuberculosis. As to the kind of experiment: Antimycobacterial activity against multi drug resistant Mycobacterium tuberculosis 234/2005 after 21 days. The settings on record: 234/2005, 504 h.
For assay [2], the system named is Mycobacterium tuberculosis. As to the kind of experiment: Antimycobacterial activity against multi drug resistant Mycobacterium tuberculosis 9449/2006 after 21 days. As to conditions: 9449/2006, 504 h.
In assay [3] the test system is Mycobacterium tuberculosis. As to the kind of experiment: Antimycobacterial activity against multi drug resistant Mycobacterium tuberculosis 234/2005 after 14 days. As to conditions: 234/2005, 336 h.
Assay [4] has as its system Mycobacterium tuberculosis. As to the kind of experiment: Antimycobacterial activity against multi drug resistant Mycobacterium tuberculosis Praha 4 after 21 days. The settings on record: Praha 4, 504 h.
Assay [5] deals with Mycobacterium tuberculosis. As to the kind of experiment: Antimycobacterial activity against multi drug resistant Mycobacterium tuberculosis 8666/2010 after 21 days. The settings on record: 8666/2010, 504 h.
The subject of assay [6] is Mycobacterium tuberculosis. As to the kind of experiment: Antimycobacterial activity against multi drug resistant Mycobacterium tuberculosis 7357/1998 after 14 days. The settings on record: 7357/1998, 336 h.
Assay [7] relates to Mycobacterium tuberculosis. As to the kind of experiment: Antimycobacterial activity against multi drug resistant Mycobacterium tuberculosis 7357/1998 after 21 days. The settings on record: 7357/1998, 504 h.
Assay [8] deals with Mycobacterium tuberculosis. As to the kind of experiment: Antimycobacterial activity against multi drug resistant Mycobacterium tuberculosis Praha 1 after 21 days. The settings on record: Praha 1, 504 h.
Assay [9] concerns Mycobacterium tuberculosis. As to the kind of experiment: Antimycobacterial activity against multi drug resistant Mycobacterium tuberculosis Praha 1 after 14 days. The settings on record: Praha 1, 336 h.
The test system of assay [10] is Mycobacterium tuberculosis. As to the kind of experiment: Antimycobacterial activity against multi drug resistant Mycobacterium tuberculosis 8666/2010 after 14 days. The settings on record: 8666/2010, 336 h.
Assay [11] deals with Mycobacterium tuberculosis. As to the kind of experiment: Antimycobacterial activity against multi drug resistant Mycobacterium tuberculosis Praha 4 after 14 days. As to conditions: Praha 4, 336 h.
Assay [12] relates to Mycobacterium tuberculosis. As to the kind of experiment: Antimycobacterial activity against multi drug resistant Mycobacterium tuberculosis 9449/2006 after 14 days. The settings on record: 9449/2006, 336 h.

≈ marks a conversion by molar mass, not a printed value.

As usually defined, the MIC is the least concentration at which growth counts as inhibited. Turning to `O=C(Nc1ccccc1)Oc1ccc(Cl)cc1C(=O)Nc1ccc(C(F)(F)F)cc1`, the MIC in [1] worked out at 1 µM (≈ 0.435 µg/mL); in assay [2] it was 1 µM (≈ 0.435 µg/mL); in assay [3], 1 µM (≈ 0.435 µg/mL); in assay [4], 1 µM (≈ 0.435 µg/mL); in assay [5], 1 µM (≈ 0.435 µg/mL); in assay [6] it was 0.5 µM (≈ 0.217 µg/mL). The MIC was 1 µM (≈ 0.435 µg/mL) in assay [7]; 1 µM (≈ 0.435 µg/mL) in [8]; 0.5 µM (≈ 0.217 µg/mL) in assay [9]; 0.5 µM (≈ 0.217 µg/mL) in assay [10]; 0.5 µM (≈ 0.217 µg/mL) in assay [11]; 1 µM (≈ 0.435 µg/mL) in [12].

Take `O=C(NCCc1ccccc1)Oc1ccc(Cl)cc1C(=O)Nc1ccc(C(F)(F)F)cc1`: the MIC stood at 2 µM (≈ 0.926 µg/mL) in assay [1]; 2 µM (≈ 0.926 µg/mL) in [2]; 2 µM (≈ 0.926 µg/mL) in assay [3]; 2 µM (≈ 0.926 µg/mL) in assay [4]; 2 µM (≈ 0.926 µg/mL) in assay [5]; 1 µM (≈ 0.463 µg/mL) in assay [6]. Further, the MIC in [7] turned out to be 2 µM (≈ 0.926 µg/mL); in assay [8] it was 1 µM (≈ 0.463 µg/mL); in assay [9] it was 1 µM (≈ 0.463 µg/mL); in [10], 2 µM (≈ 0.926 µg/mL); in assay [11] it was 2 µM (≈ 0.926 µg/mL); in assay [12], 2 µM (≈ 0.926 µg/mL).

Regarding `O=C(NC12CC3CC(CC(C3)C1)C2)Oc1ccc(Cl)cc1C(=O)Nc1ccc(C(F)(F)F)cc1`, the minimal inhibitory concentration (MIC) in assay [1] is 1 µM (≈ 0.493 µg/mL); in assay [2], 1 µM (≈ 0.493 µg/mL); in assay [3], 1 µM (≈ 0.493 µg/mL); in assay [4], 1 µM (≈ 0.493 µg/mL); in assay [5], 1 µM (≈ 0.493 µg/mL); in assay [6], 0.5 µM (≈ 0.246 µg/mL). Besides, the MIC in assay [7] stood at 1 µM (≈ 0.493 µg/mL); in assay [8], 1 µM (≈ 0.493 µg/mL); in assay [9], 0.5 µM (≈ 0.246 µg/mL); in assay [10] it was 0.5 µM (≈ 0.246 µg/mL); in assay [11], 0.5 µM (≈ 0.246 µg/mL); in assay [12], 1 µM (≈ 0.493 µg/mL).

For the compound `O=C(NC1CCCCC1)Oc1ccc(Cl)cc1C(=O)Nc1ccc(C(F)(F)F)cc1`, the MIC in [1] turned out to be 1 µM (≈ 0.441 µg/mL); in [2], 1 µM (≈ 0.441 µg/mL); in assay [3] it was 0.5 µM (≈ 0.22 µg/mL); in [4] it was 1 µM (≈ 0.441 µg/mL); in assay [5], 1 µM (≈ 0.441 µg/mL); in [6] it was 0.5 µM (≈ 0.22 µg/mL). Moreover, the minimal inhibitory concentration (MIC) was 1 µM (≈ 0.441 µg/mL) in [7]; 1 µM (≈ 0.441 µg/mL) in assay [8]; 0.5 µM (≈ 0.22 µg/mL) in [9]; 0.5 µM (≈ 0.22 µg/mL) in assay [10]; 0.5 µM (≈ 0.22 µg/mL) in assay [11]; 0.5 µM (≈ 0.22 µg/mL) in assay [12].

These data come from ChEMBL document CHEMBL4406824, “Phenolic N-monosubstituted carbamates: Antitubercular and toxicity evaluation of multi-targeting compounds” (Eur J Med Chem, 2019).
